What all share (type): biochemical
One assay deals with T1, JAK3 (Homo sapiens, UniProt P52333).
T1 sequence (P52333 1-1124): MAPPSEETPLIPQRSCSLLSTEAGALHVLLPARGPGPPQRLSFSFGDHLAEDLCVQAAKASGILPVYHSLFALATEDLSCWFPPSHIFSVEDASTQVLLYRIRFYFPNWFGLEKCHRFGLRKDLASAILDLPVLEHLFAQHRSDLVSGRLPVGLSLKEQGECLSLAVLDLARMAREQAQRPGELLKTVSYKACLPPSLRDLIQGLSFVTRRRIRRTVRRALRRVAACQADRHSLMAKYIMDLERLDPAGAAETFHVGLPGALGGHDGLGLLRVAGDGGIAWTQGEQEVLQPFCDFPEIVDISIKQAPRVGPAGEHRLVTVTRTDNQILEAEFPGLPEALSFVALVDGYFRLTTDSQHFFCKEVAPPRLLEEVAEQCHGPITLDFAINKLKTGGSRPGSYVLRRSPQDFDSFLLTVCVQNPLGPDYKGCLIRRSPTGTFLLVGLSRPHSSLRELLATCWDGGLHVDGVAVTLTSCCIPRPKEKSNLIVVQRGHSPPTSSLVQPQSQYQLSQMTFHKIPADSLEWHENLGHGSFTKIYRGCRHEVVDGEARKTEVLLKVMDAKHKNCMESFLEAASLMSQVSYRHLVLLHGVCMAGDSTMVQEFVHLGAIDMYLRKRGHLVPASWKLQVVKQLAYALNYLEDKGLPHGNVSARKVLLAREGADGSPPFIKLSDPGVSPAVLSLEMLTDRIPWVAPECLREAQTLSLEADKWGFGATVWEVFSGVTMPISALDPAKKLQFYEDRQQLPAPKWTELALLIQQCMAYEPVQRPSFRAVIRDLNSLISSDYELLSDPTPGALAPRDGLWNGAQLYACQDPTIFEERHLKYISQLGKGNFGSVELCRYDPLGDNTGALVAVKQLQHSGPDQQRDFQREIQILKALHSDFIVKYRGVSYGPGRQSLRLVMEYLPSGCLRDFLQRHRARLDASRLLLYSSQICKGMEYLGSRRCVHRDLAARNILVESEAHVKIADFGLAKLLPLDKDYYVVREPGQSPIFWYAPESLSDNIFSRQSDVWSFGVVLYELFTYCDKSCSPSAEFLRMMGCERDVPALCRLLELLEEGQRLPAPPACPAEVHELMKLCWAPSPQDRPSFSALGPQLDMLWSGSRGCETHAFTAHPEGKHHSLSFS
Put plainly: Inhibition of a panel of kinases, in vitro HotSpot kinase assay: JAK3. Conditions: read-out: IC50 JAK3.

For a further assay, the target named is EGFR (Homo sapiens, UniProt P00533). Put plainly: Inhibition of a panel of kinases, in vitro HotSpot kinase assay: EGFR. The procedure:
(§1) The degree of inhibition of a panel of kinases is determined using the in vitro HotSpot kinase assay (purified enzymes, ^33P-ATP, an appropriate substrate and 1 μM ATP).

In another assay the target is SRC (Homo sapiens, UniProt P12931). Nature of the assay: Inhibition of a panel of kinases, in vitro HotSpot kinase assay: SRC. The procedure:
as §1

The next assay addresses T2, TEC (Homo sapiens, UniProt P42680).
T2 sequence (P42680 1-631): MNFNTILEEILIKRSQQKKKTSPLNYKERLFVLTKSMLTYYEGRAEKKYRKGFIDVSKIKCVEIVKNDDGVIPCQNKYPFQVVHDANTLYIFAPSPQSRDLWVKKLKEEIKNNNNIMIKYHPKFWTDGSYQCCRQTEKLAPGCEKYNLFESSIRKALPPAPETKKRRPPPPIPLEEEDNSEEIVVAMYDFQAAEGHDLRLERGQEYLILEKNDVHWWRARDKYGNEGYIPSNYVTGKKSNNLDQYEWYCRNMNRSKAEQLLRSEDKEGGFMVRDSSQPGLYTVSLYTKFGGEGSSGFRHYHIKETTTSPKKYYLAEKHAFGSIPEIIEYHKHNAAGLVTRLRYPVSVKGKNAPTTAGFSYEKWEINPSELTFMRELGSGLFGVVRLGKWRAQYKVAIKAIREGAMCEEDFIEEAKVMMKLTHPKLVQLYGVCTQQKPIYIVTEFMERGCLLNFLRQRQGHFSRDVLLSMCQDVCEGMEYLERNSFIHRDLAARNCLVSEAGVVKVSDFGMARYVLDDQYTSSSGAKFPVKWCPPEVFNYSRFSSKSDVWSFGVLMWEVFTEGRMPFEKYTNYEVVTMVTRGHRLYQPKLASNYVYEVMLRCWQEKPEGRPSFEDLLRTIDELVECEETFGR
Nature of the assay: Inhibition of a panel of kinases, in vitro HotSpot kinase assay: TEC. The method, then:
as §1

The mark [1] stands for this setting: Table 13, A compounds, 1 μM ATP.

The text below walks through data of patent US20210070748A1, “INHIBITORS OF BRUTONS TYROSINE KINASE” (Pharmacyclics LLC, priority 2015, published 2021).

The structures appear in SMILES notation. Where two headings read alike, the source gives them in different places. Where only a bound is given, the exact number is not on record here.

SRC, sequence (P12931 whole entry): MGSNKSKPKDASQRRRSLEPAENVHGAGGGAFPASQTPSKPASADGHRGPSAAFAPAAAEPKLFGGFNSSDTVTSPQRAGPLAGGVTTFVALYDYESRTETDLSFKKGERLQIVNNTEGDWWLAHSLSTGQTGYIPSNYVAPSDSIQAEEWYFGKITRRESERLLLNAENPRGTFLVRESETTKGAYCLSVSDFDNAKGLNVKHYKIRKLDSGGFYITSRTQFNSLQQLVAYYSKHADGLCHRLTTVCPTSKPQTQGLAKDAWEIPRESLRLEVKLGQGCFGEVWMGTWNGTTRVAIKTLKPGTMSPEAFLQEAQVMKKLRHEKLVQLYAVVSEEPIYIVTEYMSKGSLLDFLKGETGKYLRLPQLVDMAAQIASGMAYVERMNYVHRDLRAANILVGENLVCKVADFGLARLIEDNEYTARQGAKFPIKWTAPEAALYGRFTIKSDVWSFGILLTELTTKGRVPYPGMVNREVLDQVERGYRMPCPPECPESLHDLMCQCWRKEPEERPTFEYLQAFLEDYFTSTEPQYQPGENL
EGFR, sequence (P00533 25-1210): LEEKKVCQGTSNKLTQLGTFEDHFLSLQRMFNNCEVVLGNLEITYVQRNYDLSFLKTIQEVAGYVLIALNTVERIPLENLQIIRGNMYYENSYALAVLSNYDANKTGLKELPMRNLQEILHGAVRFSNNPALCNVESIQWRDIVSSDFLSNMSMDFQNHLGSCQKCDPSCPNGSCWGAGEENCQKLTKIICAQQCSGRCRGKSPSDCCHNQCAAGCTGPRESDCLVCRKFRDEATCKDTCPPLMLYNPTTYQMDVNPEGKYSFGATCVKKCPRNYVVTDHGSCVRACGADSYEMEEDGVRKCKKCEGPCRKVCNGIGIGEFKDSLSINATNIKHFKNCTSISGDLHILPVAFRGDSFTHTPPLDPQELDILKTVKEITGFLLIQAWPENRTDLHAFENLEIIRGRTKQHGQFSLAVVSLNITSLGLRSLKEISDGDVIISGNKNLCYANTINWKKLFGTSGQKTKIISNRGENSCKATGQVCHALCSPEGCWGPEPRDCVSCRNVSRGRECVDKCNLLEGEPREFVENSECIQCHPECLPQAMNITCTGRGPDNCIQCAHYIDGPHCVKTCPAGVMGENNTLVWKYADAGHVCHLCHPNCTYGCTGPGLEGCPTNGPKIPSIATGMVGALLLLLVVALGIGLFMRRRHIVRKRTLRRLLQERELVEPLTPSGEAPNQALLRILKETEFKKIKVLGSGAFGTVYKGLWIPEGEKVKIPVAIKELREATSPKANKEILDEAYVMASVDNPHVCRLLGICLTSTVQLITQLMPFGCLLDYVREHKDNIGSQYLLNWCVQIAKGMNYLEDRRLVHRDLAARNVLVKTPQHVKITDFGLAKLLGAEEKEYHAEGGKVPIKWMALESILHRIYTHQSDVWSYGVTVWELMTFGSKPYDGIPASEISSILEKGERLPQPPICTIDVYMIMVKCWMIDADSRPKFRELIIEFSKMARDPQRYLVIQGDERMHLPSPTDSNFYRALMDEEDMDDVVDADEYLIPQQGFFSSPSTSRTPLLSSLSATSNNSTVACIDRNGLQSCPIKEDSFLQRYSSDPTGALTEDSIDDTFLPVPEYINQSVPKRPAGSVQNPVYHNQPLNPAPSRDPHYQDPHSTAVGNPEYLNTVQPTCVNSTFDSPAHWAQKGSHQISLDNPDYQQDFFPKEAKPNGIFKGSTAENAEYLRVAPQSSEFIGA

Take `COCCn1cc(Nc2nc(N3CCC[C@@H](NC(=O)c4ccc(C5CC5)cc4)[C@H]3C)cnc2C(N)=O)cn1` [Example A-186, 5-((2R,3R)-3-(4-cyclopropylbenzamido)-2-methylpiperidin-1-yl)-3-(1-(2-methoxylethyl)-1H-pyrazol-4-ylamino)pyrazine-2-carboxamide]: the IC50 (as a rule, the concentration at which inhibition is half-maximal) on JAK3 (setting [1]) was in the range of 1000 to 10000 nM; at EGFR (setting [1]), 1000 to 10000 nM; against SRC (setting [1]), 100 to 1000 nM; against TEC (setting [1]), 100 to 1000 nM.

Turning to `C[C@@H]1[C@H](NC(=O)c2ccc(C3CC3)cc2F)CCCN1c1cnc(C(N)=O)c(Nc2ccc(C3(C)CCN(C4CC4)CC3)cc2)n1` [Example A-174, 5-[(2R,3R)-3-(4-cyclopropyl-2-fluorobenzamido)-2-methylpiperidin-1-yl]-3-{[4-(1-cyclopropyl-4-methylpiperidin-4-yl)phenyl]amino}pyrazine-2-carboxamide], the IC50 was 10 to 100 nM on JAK3 (setting [1]), 100 to 1000 nM against EGFR (setting [1]), 100 to 1000 nM at SRC (setting [1]) and 10 to 100 nM at TEC (setting [1]).

For `C=CC(=O)N1CCC[C@@H](Nc2nnc(C(N)=O)c(Nc3ccc(C4CCN(C(=O)CC)CC4)cc3)n2)C1` [Example E-45, (R)-3-(1-acryloylpiperidin-3-ylamino)-5-(4-(1-propionylpiperidin-4-yl)phenylamino)-1,2,4-triazine-6-carboxamide], the IC50 at JAK3 (E compounds, Table 17) was under 10 nM; against EGFR (E compounds, Table 17), at most 10 nM; at SRC (E compounds, Table 17), 10 to 100 nM; against TEC (E compounds, Table 17), at most 10 nM.

Take `C=CC(=O)N1CC[C@@H](N(C)c2nnc(C(N)=O)c(Nc3cc(C)ns3)n2)C1` [Example E-12, (R)-3-((1-acryloylpyrrolidin-3-yl)(methyl)amino)-5-(3-methylisothiazol-5-ylamino)-1,2,4-triazine-6-carboxamide]: the IC50 is under 10 nM on JAK3 (E compounds, Table 17); 10 to 100 nM at EGFR (E compounds, Table 17); 10 to 100 nM against SRC (E compounds, Table 17); at most 10 nM against TEC (E compounds, Table 17).

Regarding `Cn1cc(Nc2nc(N3CCC[C@@H](n4ccc5cc(C6CC6)ccc5c4=O)C3)cnc2C(N)=O)cn1` [Example A-167, 5-[(3R)-3-(6-cyclopropyl-1-oxo-1,2-dihydroisoquinolin-2-yl)piperidin-1-yl]-3-[(1-methyl-1H-pyrazol-4-yl)amino]pyrazine-2-carboxamide], the IC50 at JAK3 (setting [1]) is over 10000 nM; against EGFR (setting [1]) it was over 10000 nM; against SRC (setting [1]) it was 1000 to 10000 nM; against TEC (setting [1]), 10 to 100 nM.

In the case of `C[C@@H]1[C@H](NC(=O)c2ccc(C3CC3)cc2)CCCN1c1cnc(C(N)=O)c(Nc2ccc(N3CCN(C4COC4)C[C@@H]3C)cc2)n1` [Example E-142, 5-((2R,3R)-3-(4-cyclopropylbenzamido)-2-methylpiperidin-1-yl)-3-((4-((S)-2-methyl-4-(oxetan-3-yl)piperazin-1-yl)phenyl)amino)pyrazine-2-carboxamide], the IC50 on JAK3 (E compounds, Table 17) was 1000 to 10000 nM; against EGFR (E compounds, Table 17) it was 1000 to 10000 nM; on SRC (E compounds, Table 17), 10 to 100 nM; at TEC (E compounds, Table 17), at most 10 nM.

On to `CC(C)N1CCN(c2ccc(Nc3nc(N4CCC[C@@H](NC(=O)c5ccc(C6CC6)cc5F)[C@H]4C)cnc3C(N)=O)cc2)CC1` [Example A-149, 5-[(2R,3R)-3-(4-cyclopropyl-2-fluorobenzamido)-2-methylpiperidin-1-yl]-3-({4-[4-(propan-2-yl)piperazin-1-yl]phenyl}amino)pyrazine-2-carboxamide], for which the IC50 at JAK3 (setting [1]) is 1000 to 10000 nM; at EGFR (setting [1]) it was 100 to 1000 nM; against SRC (setting [1]) it was 10 to 100 nM; against TEC (setting [1]) it was 10 to 100 nM.

Take `C[C@@H]1[C@H](NC(=O)c2ccc(C3CC3)cc2F)CCCN1c1cnc(C(N)=O)c(Nc2ccc(C3(C)CCN(C4CCCC4)CC3)cc2)n1` [Example A-121, 3-{[4-(1-cyclopentyl-4-methylpiperidin-4-yl)phenyl]amino}-5-[(2R,3R)-3-(4-cyclopropyl-2-fluorobenzamido)-2-methylpiperidin-1-yl]pyrazine-2-carboxamide]: the IC50 at JAK3 (setting [1]) is 100 to 1000 nM; at EGFR (setting [1]) it was 10 to 100 nM; against SRC (setting [1]) it was at most 10 nM; against TEC (setting [1]), at most 10 nM.

Take `COCCN(C)Cc1cc(Nc2nc(N3CCC[C@@H](NC(=O)c4ccc(C5CC5)cc4)[C@H]3C)cnc2C(N)=O)sn1` [Example A-185, 5-((2R,3R)-3-(4-cyclopropylbenzamido)-2-methylpiperidin-1-yl)-3-(3-(((2-methoxyethyl)(meth-yl)amino)meth-yl)isothiazol-5-ylamino)pyr-azine-2-carboxamide]: the IC50 was 1000 to 10000 nM on JAK3 (setting [1]), over 10000 nM on EGFR (setting [1]), 10 to 100 nM against SRC (setting [1]) and 100 to 1000 nM against TEC (setting [1]).

For the compound `C=CC(=O)N1CCC[C@@H](Nc2nnc(C(N)=O)c(Nc3cc(C)ns3)n2)C1` [Example E-11, (R)-3-(1-acryloylpiperidin-3-ylamino)-5-(3-methylisothiazol-5-ylamino)-1,2,4-triazine-6-carboxamide], the concentration for half-maximal inhibition (IC50) was under 10 nM on JAK3 (E compounds, Table 17); at most 10 nM at EGFR (E compounds, Table 17); 10 to 100 nM on SRC (E compounds, Table 17); at most 10 nM on TEC (E compounds, Table 17).

Take `C[C@@H]1[C@H](NC(=O)c2ccc(C3CC3)cc2)CCCN1c1cnc(C(N)=O)c(Nc2cnn(CCN(C)C)c2)n1` [Example A-182, 5-[(2R,3R)-3-(4-cyclopropylbenzamido)-2-methylpiperidin-1-yl]-3-({1-[2-(dimethylamino)ethyl]-1H-pyrazol-4-yl}amino)pyrazine-2-carboxamide]: the IC50 at JAK3 (setting [1]) lay in the range of 1000 to 10000 nM; on EGFR (setting [1]), 1000 to 10000 nM; against SRC (setting [1]), 100 to 1000 nM; against TEC (setting [1]), 100 to 1000 nM.

In the case of `C[C@@H]1[C@H](NC(=O)c2ccc(C3CC3)cc2)CCCN1c1cnc(C(N)=O)c(Nc2cc(CN3CCCCC3)ns2)n1` [Example A-181, 5-[(2R,3R)-3-(4-cyclopropylbenzamido)-2-methylpiperidin-1-yl]-3-{[3-(piperidin-1-ylmethyl)-1,2-thiazol-5-yl]amino}pyrazine-2-carboxamide], the IC50 on JAK3 (setting [1]) lay within 100 to 1000 nM; at EGFR (setting [1]) it was 1000 to 10000 nM; on SRC (setting [1]), 10 to 100 nM; against TEC (setting [1]), 10 to 100 nM.

In the case of `C[C@@H]1[C@H](NC(=O)c2ccc(C3CC3)cc2F)CCCN1c1cnc(C(N)=O)c(Nc2ccc(C(=O)N3CCN(C)CC3)cc2)n1` [Example A-122, 5-[(2R,3R)-3-(4-cyclopropyl-2-fluorobenzamido)-2-methylpiperidin-1-yl]-3-{[4-(4-methylpiperazine-1-carbonyl)phenyl]amino}pyr-azine-2-carboxamide], the 50% inhibitory concentration (IC50) on JAK3 (setting [1]) was in the range of 100 to 1000 nM; on EGFR (setting [1]), 100 to 1000 nM; at SRC (setting [1]), 100 to 1000 nM; against TEC (setting [1]) it was 10 to 100 nM.

For the compound `CN(C)C(=O)N[C@@H]1CCCN(c2cnc(C(N)=O)c(Nc3ccc(C4(C)CCN(C5CCCC5)CC4)cc3)n2)[C@@H]1CO` [Example A-101, 3-{[4-(1-cyclopentyl-4-methylpiperidin-4-yl)phenyl]amino}-5-[(2S,3R)-3-[(dimethylcarbamoyl)amino]-2-(hydroxymethyl)piperidin-1-yl]pyrazine-2-carboxamide], the IC50 at JAK3 (setting [1]) is 1000 to 10000 nM; on EGFR (setting [1]), 100 to 1000 nM; at SRC (setting [1]), 100 to 1000 nM; against TEC (setting [1]) it was 100 to 1000 nM.
